Values joined by “and” are separate entries in the source; they are usually repeats but may differ in a detail not shown here. Equal values may be shown once.

The first assay addresses T1, CRTH2 receptor (hCRTH2) (Homo sapiens, UniProt Q9Y5Y4).
T1 construct: expressed in transfected cells; host or cells: HEK cells (HEK-hCRTH2 cell line), membranes
T1 sequence (Q9Y5Y4 1-395): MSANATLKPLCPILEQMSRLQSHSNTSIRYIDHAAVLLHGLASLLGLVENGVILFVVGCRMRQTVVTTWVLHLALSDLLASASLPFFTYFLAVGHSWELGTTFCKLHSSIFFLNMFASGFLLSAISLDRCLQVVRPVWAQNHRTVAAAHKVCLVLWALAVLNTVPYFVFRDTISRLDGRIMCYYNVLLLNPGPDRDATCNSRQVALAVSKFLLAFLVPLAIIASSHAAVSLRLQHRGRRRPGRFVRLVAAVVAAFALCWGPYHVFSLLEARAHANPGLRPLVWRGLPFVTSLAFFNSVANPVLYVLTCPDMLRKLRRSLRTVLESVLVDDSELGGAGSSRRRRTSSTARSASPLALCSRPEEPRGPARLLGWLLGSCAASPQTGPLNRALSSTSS
Kind of assay: Radioligand binding assay ([3H]PGD2 competition, membranes of HEK-hCRTH2 cell line). The following applies: 3.0 nM [3H]PGD2, HEK-hCRTH2 membranes, 60 min, room temperature; read-out: Ki. The procedure, abridged: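 Membranes (8-20 μg protein) from HEK cells expressing human CRTH2 were incubated with [3H]PGD2 and competitor in 1% DMSO for 60 min at room temperature. Non-specific binding was defined with excess PGD2. Bound radioactivity was separated by filtration and counted by melt-on scintillation.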
With `CC1(c2nc3cc(Cl)ccc3o2)CC(c2ccc3c(=O)n(-c4ccc(F)cc4)c(CCCCC(=O)O)nc3c2)=NO1` (centres unmarked) [Example 159], the inhibition constant Ki was at most 10 nM. Same read-out and setting: as for `CC1(c2nc3ccccc3[nH]2)CC(c2ccc3c(=O)n(-c4ccc(F)cc4)c(CCCCC(=O)O)nc3c2)=NO1` (centres unmarked) [Example 160], the figure is at most 10 nM; as for `CC1(c2nc3cc(F)ccc3o2)CC(c2ccc3c(=O)n(-c4ccc(F)cc4)c(CCCCC(=O)O)nc3c2)=NO1` (centres unmarked) [Example 161], at most 10 nM; as for `CC1(c2nc3ccccn3c2Cl)CC(c2ccc3c(=O)n(-c4ccc(F)cc4)c(CCCCC(=O)O)nc3c2)=NO1` (centres unmarked) [Example 162], at most 10 nM. In the case of `C[C@@]1(c2nc3cc(F)ccc3o2)CC(c2ccc3c(=O)n(-c4ccc(F)cc4)c(CCCCC(=O)O)nc3c2)=NO1` [Example 163], the inhibition constant Ki was at most 10 nM.

In the case of `C[C@]1(c2nc3cc(F)ccc3o2)CC(c2ccc3c(=O)n(-c4ccc(F)cc4)c(CCCCC(=O)O)nc3c2)=NO1` [Example 164], the Ki is 10 to 50 nM. For `CC1(C(=O)Nc2cc(Cl)c(Cl)cc2O)CC(c2ccc3c(=O)n(-c4ccc(F)cc4)c(CCCCC(=O)O)nc3c2)=NO1` (centres unmarked) [Example 165], the Ki is 10 to 50 nM.

For the compound `CC1(C(=O)Nc2cc(F)ccc2O)CC(c2ccc3c(=O)n(-c4ccc(F)cc4)c(CCCCC(=O)O)nc3c2)=NO1` (centres unmarked) [Example 166], the Ki was at most 10 nM.

Take `C[C@@]1(c2nc3ccccn3c2Cl)CC(c2ccc3c(=O)n(-c4ccc(F)cc4)c(CCCCC(=O)O)nc3c2)=NO1` [Example 167]: the Ki was at most 10 nM. For `CC1(c2nc3ccc(F)cc3o2)CC(c2ccc3c(=O)n(-c4ccc(F)cc4)c(CCCCC(=O)O)nc3c2)=NO1` (centres unmarked) [Example 169], the inhibitory constant (Ki) was at most 10 nM. Consider `CC1(c2cn3ccccc3n2)CC(c2ccc3c(=O)n(-c4ccc(F)cc4)c(CCCCC(=O)O)nc3c2)=NO1` (centres unmarked) [Example 171], for which the Ki was at most 10 nM.

`C[C@]1(c2nc3ccc(Cl)cc3o2)CC(c2ccc3c(=O)n(-c4ccc(F)cc4)c(CCCCC(=O)O)nc3c2)=NO1` [Example 172]: the inhibition constant (Ki) was at most 10 nM. For the compound `CC1(c2nc3ccc(F)cc3[nH]2)CC(c2ccc3c(=O)n(-c4ccc(F)cc4)c(CCCCC(=O)O)nc3c2)=NO1` (centres unmarked) [Example 174], the Ki was at most 10 nM.

For the compound `CC1(c2nc3ccc(Cl)cc3[nH]2)CC(c2ccc3c(=O)n(-c4ccc(F)cc4)c(CCCCC(=O)O)nc3c2)=NO1` (centres unmarked) [Example 175], the inhibition constant Ki was at most 10 nM. For `C[C@]1(c2nc3ccccc3[nH]2)CC(c2ccc3c(=O)n(-c4ccc(F)cc4)c(CCCCC(=O)O)nc3c2)=NO1` [Example 176], the Ki is at most 10 nM. `C[C@@]1(c2cn3ccccc3n2)CC(c2ccc3c(=O)n(-c4ccc(F)cc4)c(CCCCC(=O)O)nc3c2)=NO1` [Example 178]: the Ki is at most 10 nM. In the case of `C[C@@]1(c2nc3ccc(F)cc3[nH]2)CC(c2ccc3c(=O)n(-c4ccc(F)cc4)c(CCCCC(=O)O)nc3c2)=NO1` [Example 182], the Ki is at most 10 nM. For `C[C@]1(c2nc3ccc(F)cc3[nH]2)CC(c2ccc3c(=O)n(-c4ccc(F)cc4)c(CCCCC(=O)O)nc3c2)=NO1` [Example 183], the inhibition constant Ki lay in the range of 10 to 50 nM. For the compound `C[C@@]1(c2nc3ccc(F)cc3o2)CC(c2ccc3c(=O)n(-c4ccc(F)cc4)c(CCCCC(=O)O)nc3c2)=NO1` [Example 184], the Ki is ≤ 10 nM and 5.7 nM. Same read-out and setting: the figure for `C[C@]1(c2nc3ccc(F)cc3o2)CC(c2ccc3c(=O)n(-c4ccc(F)cc4)c(CCCCC(=O)O)nc3c2)=NO1` [Example 185] is 10 to 50 nM; for `C[C@@]1(c2nc3ccc(Cl)cc3[nH]2)CC(c2ccc3c(=O)n(-c4ccc(F)cc4)c(CCCCC(=O)O)nc3c2)=NO1` [Example 186] it is at most 10 nM; for `C[C@]1(C(=O)Nc2cc(F)ccc2O)CC(c2ccc3c(=O)n(-c4ccc(F)cc4)c(CCCCC(=O)O)nc3c2)=NO1` [Example 189] it is at most 10 nM. Regarding `C[C@@]1(C(=O)Nc2cc(F)ccc2O)CC(c2ccc3c(=O)n(-c4ccc(F)cc4)c(CCCCC(=O)O)nc3c2)=NO1` [Example 190], the Ki was 50 to 100 nM and 96.2 nM. Take `C[C@@]1(C(=O)Nc2ccccc2O)CC(c2ccc3c(=O)n(-c4ccc(F)cc4)c(CCCCC(=O)O)nc3c2)=NO1` [Example 191]: the inhibition constant Ki was at most 10 nM. On the same count and under the same terms, the figure for `CC(C)(C)OC(=O)C1(C)CC(c2ccc3c(=O)n(-c4ccc(F)cc4)c(CCCCC(=O)O)nc3c2)=NO1` (centres unmarked) [Example 192] is at most 10 nM; for `CC1(c2cc3ccccn3n2)CC(c2ccc3c(=O)n(-c4ccc(F)cc4)c(CCCCC(=O)O)nc3c2)=NO1` (centres unmarked) [Example 193] it is at most 10 nM; for `CC1(c2nc3cc(F)c(F)cc3[nH]2)CC(c2ccc3c(=O)n(-c4ccc(F)cc4)c(CCCCC(=O)O)nc3c2)=NO1` (centres unmarked) [Example 194] it is at most 10 nM. Still for that read-out and setting: as for `Cc1cccc2nc(C3(C)CC(c4ccc5c(=O)n(-c6ccc(F)cc6)c(CCCCC(=O)O)nc5c4)=NO3)[nH]c12` (centres unmarked) [Example 195], the figure is at most 10 nM; as for `C[C@@]1(c2nc3cc(C(F)(F)F)ccc3[nH]2)CC(c2ccc3c(=O)n(-c4ccc(F)cc4)c(CCCCC(=O)O)nc3c2)=NO1` [Example 196], at most 10 nM. Take `CC1(c2nc3cc(Cl)c(F)cc3[nH]2)CC(c2ccc3c(=O)n(-c4ccc(F)cc4)c(CCCCC(=O)O)nc3c2)=NO1` (centres unmarked) [Example 197]: the inhibition constant Ki is at most 10 nM.

On to `CC1(c2nc3cc(F)cc(F)c3[nH]2)CC(c2ccc3c(=O)n(-c4ccc(F)cc4)c(CCCCC(=O)O)nc3c2)=NO1` (centres unmarked) [Example 198], for which the inhibition constant Ki is at most 10 nM.

With `CC1(C(=O)N2Cc3ccccc3C2)CC(c2ccc3c(=O)n(-c4ccc(F)cc4)c(CCCCC(=O)O)nc3c2)=NO1` (centres unmarked) [Example 199], the Ki was at most 10 nM. Consider `CC1(C(=O)O)CC(c2ccc3c(=O)n(-c4ccc(F)cc4)c(CCCCC(=O)O)nc3c2)=NO1` (centres unmarked) [Example 200], for which the Ki is 10 to 50 nM. Consider `C[C@@]1(c2cc3ccccn3n2)CC(c2ccc3c(=O)n(-c4ccc(F)cc4)c(CCCCC(=O)O)nc3c2)=NO1` [Example 201], for which the Ki was at most 10 nM.

As for `C[C@]1(c2cc3ccccn3n2)CC(c2ccc3c(=O)n(-c4ccc(F)cc4)c(CCCCC(=O)O)nc3c2)=NO1` [Example 202], the inhibition constant Ki is 10 to 50 nM.

On to `Cc1cccc2[nH]c([C@]3(C)CC(c4ccc5c(=O)n(-c6ccc(F)cc6)c(CCCCC(=O)O)nc5c4)=NO3)nc12` [Example 203], for which the inhibition constant (Ki) is at most 10 nM.

`CC1(c2nc3cc(F)ccc3[nH]2)CC(c2ccc3c(=O)n(-c4ccc(Cl)cc4)c(CCCCC(=O)O)nc3c2)=NO1` (centres unmarked) [Example 205]: the Ki is at most 10 nM. Turning to `CC1(c2nc3cc(Cl)ccc3[nH]2)CC(c2ccc3c(=O)n(-c4ccc(Cl)cc4)c(CCCCC(=O)O)nc3c2)=NO1` (centres unmarked) [Example 206], the Ki is at most 10 nM.

With `C[C@@]1(c2nc3cc(F)c(F)cc3[nH]2)CC(c2ccc3c(=O)n(-c4ccc(F)cc4)c(CCCCC(=O)O)nc3c2)=NO1` [Example 207], the inhibitory constant (Ki) is 10 to 50 nM and 17 nM. For `C[C@]1(c2nc3cc(F)c(F)cc3[nH]2)CC(c2ccc3c(=O)n(-c4ccc(F)cc4)c(CCCCC(=O)O)nc3c2)=NO1` [Example 208], the Ki is at most 10 nM.

Take `C[C@@]1(c2nc3cc(Cl)c(F)cc3[nH]2)CC(c2ccc3c(=O)n(-c4ccc(F)cc4)c(CCCCC(=O)O)nc3c2)=NO1` [Example 209]: the Ki is at most 10 nM. Same read-out and setting: the figure for `C[C@]1(c2nc3cc(Cl)c(F)cc3[nH]2)CC(c2ccc3c(=O)n(-c4ccc(F)cc4)c(CCCCC(=O)O)nc3c2)=NO1` [Example 210] is 10 to 50 nM; for `CC1(C(=O)N2CCc3ccccc32)CC(c2ccc3c(=O)n(-c4ccc(F)cc4)c(CCCCC(=O)O)nc3c2)=NO1` (centres unmarked) [Example 211] it is at most 10 nM.

As to `CC1(C(=O)N2CCCCC2)CC(c2ccc3c(=O)n(-c4ccc(F)cc4)c(CCCCC(=O)O)nc3c2)=NO1` (centres unmarked) [Example 212], the inhibitory constant (Ki) is 10 to 50 nM.

For the compound `C[C@@]1(c2nc3c(F)cc(F)cc3[nH]2)CC(c2ccc3c(=O)n(-c4ccc(F)cc4)c(CCCCC(=O)O)nc3c2)=NO1` [Example 213], the inhibition constant Ki is at most 10 nM. As for `C[C@@]1(C(=O)N[C@H]2c3ccccc3C[C@H]2O)CC(c2ccc3c(=O)n(-c4ccc(F)cc4)c(CCCCC(=O)O)nc3c2)=NO1` [Example 215], the Ki was at most 10 nM. For the compound `C[C@]1(C(=O)N[C@@H]2c3ccccc3C[C@@H]2O)CC(c2ccc3c(=O)n(-c4ccc(F)cc4)c(CCCCC(=O)O)nc3c2)=NO1` [Example 216], the Ki is 10 to 50 nM.

In the case of `CC1(c2nc3cc(F)c(F)cc3[nH]2)CC(c2ccc3c(=O)n(-c4ccc(Cl)cc4)c(CCCCC(=O)O)nc3c2)=NO1` (centres unmarked) [Example 219], the inhibition constant Ki was at most 10 nM. On to `C[C@@]1(c2nc3ccc(F)cc3[nH]2)CC(c2ccc3c(=O)n(-c4ccc(Cl)cc4)c(CCCCC(=O)O)nc3c2)=NO1` [Example 220], for which the inhibitory constant (Ki) was at most 10 nM. Regarding `C[C@@]1(c2nc3ccc(Cl)cc3[nH]2)CC(c2ccc3c(=O)n(-c4ccc(Cl)cc4)c(CCCCC(=O)O)nc3c2)=NO1` [Example 222], the inhibition constant (Ki) was at most 10 nM.

The assay is the same for the next values; noted with them: Ki, 3.0 nM [3H]PGD2, HEK-hCRTH2 membranes, 60 min, room temperature.
In the case of `CC1(c2nc3ccccc3s2)CC(c2ccc3c(=O)n(-c4ccc(F)cc4)c(CCCCC(=O)O)nc3c2)=NO1` (centres unmarked) [Example 170], the Ki was at most 10 nM. In turn, `C[C@@]1(c2nc3ccccc3s2)CC(c2ccc3c(=O)n(-c4ccc(F)cc4)c(CCCCC(=O)O)nc3c2)=NO1` [Example 180] yielded a Ki of at most 10 nM. Take `C[C@]1(c2nc3ccccc3s2)CC(c2ccc3c(=O)n(-c4ccc(F)cc4)c(CCCCC(=O)O)nc3c2)=NO1` [Example 181]: the Ki was at most 10 nM.

(Values after US8927559B2, “Quinazolinone-type compounds as CRTH2 antagonists” (Merck Sharp & Dohme Corp., priority 2010, dated 2015).)
